Assays:
[1] = target: T1, adipose HSD-1 (Homo sapiens, UniProt P28845); test: Adipose HSD-1 inhibition by microdialysis (D8 cortisone to D8 cortisol) in subjects with type 2 diabetes given SPI-62; format: in vivo
T1 construct: infused continuously into subcutaneous abdominal adipose tissue via microdialysis catheters; from tissue; host or cells: human subcutaneous abdominal adipose tissue, in vivo
Protocol: Male and non-menstruating female subjects with type 2 diabetes aged between 18 and 65 years with a body mass index between 30.0 and 45.0 were administered SPI-62 daily for 14 days. […] Percent adipose HSD-1 inhibition was calculated as: 100*(1-(MPFt/MPFbaseline).
The time (t) of the sample was considered to be the midpoint of the collection interval. […] Data shown are the median inhibition observed in two subjects for whom the SPI-62 daily dose was 6 mg.
Male and non-menstruating female subjects with type 2 diabetes aged between 18 and 65 years with a body mass index between 30.0 and 45.0 were administered SPI-62 daily for 14 days. In addition to the six subjects described in Example 1 who received SPI-62 1, 3, or 6 mg for 14 days, six additional subjects received SPI-62 1, 2, 3, or 10 mg for 5 to 8 days. […] Percent adipose HSD-1 inhibition was calculated as: 100*(1-(MPFt/MPFbaseline). The time (t) of the sample was considered to be the midpoint of the collection interval. A higher sensitivity assay for D8 cortisol was used to enable quantitation of adipose HSD-1 inhibition of >95%.

[2] = target: T2, brain HSD-1 (Homo sapiens, UniProt P28845); test: Brain HSD-1 occupancy by PET, competition with [11C]AS2471907; format: in vivo; details: single dose 3 mg
T2 construct: Brain HSD-1 occupancy following a single dose of SPI-62 3 mg; from tissue; host or cells: brain in vivo
Protocol: Brain HSD-1 occupancy following a single dose of SPI-62 3 mg, assessed by competition with the HSD-1-specific PET ligand [^11C]AS2471907, was 84-90% at 3.3 to 25 hours, 56-83% at 42 to 46 hours, 36 to 45% at 139 hours, and 26% at 189 hours. The pharmacologic half-life of SPI-62 in brain is, as expected, shorter than that in liver.

[3] = target: T3, human HSD-1 expressed in CHO cells (Homo sapiens, UniProt P28845); test: Inhibition of human HSD-1 expressed in CHO cells; format: cell-based
T3 construct: expressed in transfected cells; host or cells: CHO cells

[4] = Clinical effective daily dose and side effects of HSD-1 inhibitors; details: human, in vivo
Protocol: Pseudo-irreversible HSD-1 inhibitors might have additional advantages over other HSD-1 inhibitors. For example, with durable pharmacologic effect, pseudo-irreversible HSD-1 inhibitors are more amenable to less than daily dosing including depot formulations and less likely to show decreased efficacy based on imperfect patient compliance. Additionally, HSD-1 in the human body appears to become completely occupied with approximately 3 mg of a potent small molecule inhibitor. Because pseudo-irreversible inhibitors, once bound, distribute only slowly off HSD-1 a low chronic dose is possible. Several pseudo-irreversible HSD-1 inhibitors, such as SPI-62, ABT-384, MK-0736, and MK-0916, have effective dose ranges below 10 mg daily.

[5] = target: liver HSD-1 (Homo sapiens, UniProt P28845); test: Urinary HSD-1 ratio (tetrahydrocortisol+allotetrahydrocortisol)/tetrahydrocortisone; format: in vivo; set-up: from tissue; host or cells: human liver in vivo, read through urinary steroid metabolites; details: for mean urinary HSD-1 ratio, reduction from baseline: 0.7 mg daily
Description: The tetrahydro metabolites are rapidly and extensively excreted in urine. […] Continued adrenal synthesis provides a circulating pool of cortisol, the free fraction of which (˜5%) enters cells. That prevents the urinary HSD-1 ratio from dropping below approximately 0.1.

liver HSD-1, sequence (P28845 whole entry): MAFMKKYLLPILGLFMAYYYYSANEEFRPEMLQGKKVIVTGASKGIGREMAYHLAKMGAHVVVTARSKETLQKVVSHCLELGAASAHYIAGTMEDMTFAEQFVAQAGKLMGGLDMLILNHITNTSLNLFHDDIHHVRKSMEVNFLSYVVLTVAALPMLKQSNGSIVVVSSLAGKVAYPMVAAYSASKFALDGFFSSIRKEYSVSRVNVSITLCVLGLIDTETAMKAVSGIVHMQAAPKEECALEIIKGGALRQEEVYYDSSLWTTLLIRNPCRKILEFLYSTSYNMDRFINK
T1 sequence (P28845 whole entry, the tested form may be a part): as the sequence (P28845 whole entry) above
T2 sequence (P28845 whole entry): as above
T3 sequence (P28845 whole entry): as above

With `Cn1c(-c2ccc(C(N)=O)cc2F)nnc1C(C)(C)Oc1c(F)cc(Cl)cc1F` [SPI-62, 4-(5-(2-(4-chloro-2,6-difluorophenoxy)propan-2-yl)-4-methyl-4H-1,2,4-triazol-3-yl)-3-fluorobenzamide] the “adipose HSD-1 inhibition, 2nd v 14th dose intervals” value ([1]; SPI-62 6 mg daily) was “almost identical”, the “time after a single dose at which adipose HSD-1 inhibition was detected” value ([1]; SPI-62 6 mg daily, median of two subjects, FIG. 1) was 2 to 4 h and the “adipose HSD-1 inhibition during the 2nd dose interval” value ([1]; SPI-62 6 mg daily, quantitation limited to ~90-95%) was “maximal measurable levels”. The “adipose HSD-1 inhibition after multiple doses” value ([1]; SPI-62 1, 2, 3, or 10 mg) was “maximum measurable”, the “tachyphylaxis of human adipose HSD-1 inhibition with multiple dosing” value ([1]; human, in vivo) was “does not show” and the “adipose HSD-1 inhibition after lower single doses” value ([1]; lower single SPI-62 doses) was “no or limited”. For the same molecule, the “brain HSD-1 occupancy” value ([2]; 3.3 to 25 hours) was 84-90%, the “brain HSD-1 occupancy” value ([2]; 42 to 46 hours) was 56-83% and the Ki [3] was 0.0126 µM. The effective dose range [4] was “below 10 mg daily”, the “mean reduction of the urinary HSD-1 ratio from baseline” value ([5]; 0.2 mg daily for 14 days, last dosing day) was 87% and the “time after the last dose with incomplete return of urinary HSD-1 ratio to baseline” value ([5]; healthy adults) was “more than 2 weeks”. The “mean urinary HSD-1 ratio, reduction from baseline” value ([5]; healthy adults, 16±2 days after cessation) was 55%, the “mean urinary HSD-1 ratio, reduction from baseline” value ([5]; healthy adults, last dosing day) was 84% and the “mean urinary HSD-1 ratio” value ([5]; patients, 10 mg daily for 6 weeks, 2 weeks after the last dose) was 0.33. For the same molecule, the “mean urinary HSD-1 ratio” value ([5]; patients, 10 mg daily for 6 weeks, last dosing day) was 0.13, the “mean urinary HSD-1 ratio” value ([5]; single 1 mg dose, urine 0 to 6 hours post-dose) was 0.694 and the “mean urinary HSD-1 ratio” value ([5]; single 1 mg dose, urine 6 to 12 hours post-dose) was 0.471. The “mean urinary HSD-1 ratio” value ([5]; single 1 mg dose, urine 12 to 24 hours post-dose) was 0.472, the “mean urinary HSD-1 ratio” value ([5]; single 1 mg dose, urine 24 to 48 hours post-dose) was 0.522 and the “mean urinary HSD-1 ratio” value ([5]; single 1 mg dose, urine 48 to 72 hours post-dose) was 0.618. For the same molecule, the “mean difference v placebo of the urinary HSD-1 ratio” value ([5]; single dose 1 mg) was 51%.
